Reference: patent US10813859B2, “Wrinkle ameliorating agent” (POLA CHEMICAL INDUSTRIES, INC., priority 2016, dated 2020)

Tests used:
[1] = system: hyaluronan synthetase gene (HAS1) in normal human epidermal keratinocyte; assay: Test for confirming expression-increasing effect of epidermal hyaluronan synthetase gene; format: cell-based; conditions: 0.2% by mass in medium, 24 hours; qPCR, ACTB internal standard; FIG. 5
Protocol: Normal human epidermal keratinocyte (produced by Kurabo Industries Ltd.) was inoculated in a 24-well plate at […] cells/well, and incubated overnight at 37° C. in a 5% CO2 environment. The culture medium was exchanged with a medium containing 0.2% by mass of Compound 1, or glycerol (produced by Wako Pure Chemical Industries, Ltd.) and cultured at 37° C. in a 5% CO2 environment for 24 hours.
Using a mRNA recovery kit (FastLane Cell SYBR Green Kit, produced by Qiagen N.V.), mRNA was extracted by a conventional method. Using a qPCR kit (One Step SYBR PrimeScript RT-PCR Kit II, produced by Takara Bio Inc.), the expression level of the hyaluronan synthetase gene (HAS 1) was analyzed by qPCR using ACTB as an internal standard (7500 Real-Time PCR System, produced by Applied Biosystems). Data analysis was carried out by the ΔΔCt method.
The respective relative values were calculated with respect to the expression level of the gene in a medium not containing Compound 1 and glycerol (non-addition group) as 1.

[2] = Moisture absorbing property confirmation test; format: physicochemical; conditions: humidity 75%, 25° C.
Protocol: Compound 1 was precisely weighed in a 1 g weighing bottle, left in a desiccator with a humidity at 75% (a saturated aqueous solution of sodium chloride) in an open state, and stored at 25° C. The weight was measured from the start of the storage until 30 days thereafter, and the coefficient of moisture absorption was determined by the following formula. Coefficient of moisture absorption (%)=(M3−M2)/(M2−M1)×100
M1: The mass of the weighing bottle (g)
M2: The mass of the weighing bottle containing a sample at the start of the storage (g)
M3: The mass of the weighing bottle containing the sample after the storage (g)

expression level of the hyaluronan synthetase gene (HAS 1) compared to the non-addition group [1] | moisture absorbing property ([2]; up to 30 days) | Coefficient of moisture absorption (mean value, n = 3) ([2]; storage time 1 day) [%] | Coefficient of moisture absorption (mean value, n = 3) ([2]; storage time 3 days) [%] | Coefficient of moisture absorption (mean value, n = 3) ([2]; storage time 7 days) [%] | Coefficient of moisture absorption (mean value, n = 3) ([2]; storage time 14 days) [%] | Coefficient of moisture absorption (mean value, n = 3) ([2]; storage time 30 days) [%] | SMILES
significantly larger | confirmed | 13.2 | 19.0 | 20.5 | 21.0 | 21.2 | OCC(O)COC1CCCCC1 (centres unmarked) [Compound 1, 3-cyclohexyloxy-1,2-propanediol]
no significant difference | – | – | – | – | – | – | OCC(O)CO [glycerol, reference compound]
